What was measured:
Type in all cases: in vivo, guinea pigs
[1] = test system: bronchospasms elicited by 5-hydroxytryptamine; assay: Bronchodilator activity against bronchospasm elicited by intravenous 5-hydroxytryptamine, Konzett procedure; conditions: Cavia porcellus; guinea pig, 5-hydroxytryptamine spasmogen, three logarithmic cumulative intravenous doses; read-out: ED50 5HT
Method: (§1) The compounds of this invention are useful as bronchodilators for the treatment of asthma and chronic bronchitis. Bronchodilator activity is determined in guinea pigs against bronchospasms elicited by intravenous injections of 5-hydroxytryptamine, histamine or acetylcholine by the Konzett procedure. [See J. Lulling, P. Lievens, F. El Sayed and J. Prignot, Arzneimittel-Forschung, 18, 995 (1968).]
(§2) In Table which follows bronchodilator activity for representative compounds of this invention against one or more of three spasmogenic agents is expressed as an ED50 determined from the results obtained with three logarithmic cummulative intravenous doses. In this assay, these compounds of this invention provide an effect of longer duration than does natural l-PGE1 or l-PGE2.

[2] = test system: bronchospasms elicited by histamine; assay: Bronchodilator activity against bronchospasm elicited by intravenous histamine, Konzett procedure; conditions: Cavia porcellus; guinea pig, histamine spasmogen, three logarithmic cumulative intravenous doses
Method: as §1, §2

[3] = test system: bronchospasms elicited by acetylcholine; assay: Bronchodilator activity against bronchospasm elicited by intravenous acetylcholine, Konzett procedure; conditions: Cavia porcellus; guinea pig, acetylcholine spasmogen, three logarithmic cumulative intravenous doses
Method: as §1, §2

SMILES	ED50 [1] [mg/kg]	ED50 [2] [mg/kg]	ED50 [3] [mg/kg]
C=CC(O)(C/C=C/[C@@H]1[C@H]2CC(CCCCC(=O)CO)O[C@H]2C[C@H]1O)CCCC (relative stereo) [11a, 16-Dihydroxy-6,9a (epoxy)-1-hydroxymethyl-1-oxo-16-vinyl-13-trans-prostene]	0.0276	0.00146	0.0032
C=CC(O)(C/C=C/[C@@H]1[C@H]2CC(CCCCC(=O)OC)O[C@H]2C[C@H]1O)CCCC (relative stereo) [dl 11α,16-Dihydroxy-6,9α-epoxy-16-vinyl-13-trans-prostenoic acid methyl ester]	0.0367	0.0254	0.0491
CCCCC(C)(O)C/C=C/[C@@H]1[C@H]2CC(C(I)CCCC(=O)OC)O[C@H]2C[C@H]1O (relative stereo) [dl 11α,16-Dihydroxy-6,9α-epoxy-5-iodo-16-methyl-13-trans-prostenoic acid methyl ester]	0.004	0.0069	0.0065
CCCCC(C)(O)C/C=C/[C@@H]1[C@H]2CC(CCCCC(=O)OC)O[C@H]2C[C@H]1O (relative stereo) [dl 11α,16-Dihydroxy-6,9α-epoxy-16-methyl-13-trans-prostenoic acid methyl ester]	0.0925	0.111	0.146

From US4265904A, “Prostacyclin analogs of the 1 series and related analogs” (American Cyanamid Company, priority 1979, dated 1981)
